Read-outs that look alike come from different tables or passages of the source. Bridge positions count the residues as written; N and C are the ends. Square brackets hold non-standard residues; d marks the D form. Peptide text beside a SMILES is read from it. * marks the point of attachment. Asp(3S-OH) = N[C@H](C(=O)O)[C@H](O)C(=O)O; Thr(4-Cl) = N[C@H](C(=O)O)[C@H](O)CCl; X1 = CCCCCCCCC[C@@H](O)CC(=O)*; dDab = NCC[C@@H](N)C(=O)O; Dab = NCC[C@H](N)C(=O)O; Dhb = C/C=C(\N)C(=O)O
Key:
Aspergillus flavus = format: cell-based; conditions: SRE alone (0.5 mg/ml solution, diluted)
Description: (§1) The checkerboard method is used frequently to evaluate antimicrobial combinations in vitro (Lorian, V., M. D. 1996. Antibiotics in Laboratory Medicine, 4th ed.). The tests were easily performed at the laboratory level by using the microdilution method. The results obtained from this study provided a better understanding of the nature of the interaction between SRE and rhamnolipids.
(§2) The checkerboard method is described by Sabath et al. (Sabath, L. D. 1967. Synergy of antibacterial substances by apparently known mechanisms. Antimicrob. Agents Chemother. 7:210-7.) and Garrod et al. (Garrod L. P. and P. M. Waterworth. 1962. Methods of testing combined antibiotic bactericidal action and the significance of the results. J. Clin. Pathol. 15:328-38.). A 96-well plate was used to determine the fractional inhibitory concentrations (FICs). Serial twofold dilutions of SRE and rhamnolipids were prepared separately. Then 25 μl of different concentrations of syringomycin are added in a vertical orientation and the rhamnolipids were added in horizontal orientation. The final volume of the well contained 50 μl of the subject composition and 50 μl of the tested culture. The plate was incubated at 35° C. for 24-72 h. and the FICs were calculated using the equation: (A/MICa)+(B/MICb)=FICa+FICb=FIC index, where A and B are concentrations of SRE and rhamnolipids, MICa and MICb are the minimum inhibitory concentrations, and FICa and FICb are the fractional inhibitory concentrations of SRE and rhamnolipids, respectively.
(§3) SRE and Rh solutions were prepared, at the concentrations shown (mg/ml), then diluted and used to determine the minimum inhibitory concentration (MIC, μg/ml) of each, alone and in composition with the other (SYRA and SYRA2). […] Beneficial effects against the other organisms tested are evidenced by examination and analysis of the corresponding data.

Botrytis sp = format: cell-based; conditions: SRE alone (0.5 mg/ml solution, diluted)
Description: as §1, §2, §3

Candida albicans = format: cell-based; conditions: SRE alone (0.5 mg/ml solution, diluted)
Description: as §1, §2, §3

Cladosporium sp = format: cell-based; conditions: SRE alone (0.5 mg/ml solution, diluted)
Description: as §1, §2, §3

Fusarium oxysporum = format: cell-based; conditions: SRE alone (0.5 mg/ml solution, diluted)
Description: as §1, §2, §3

Penicillium sp1 = format: cell-based; conditions: SRE alone (0.5 mg/ml solution, diluted)
Description: as §1, §2, §3

Penicillium sp2 = format: cell-based; conditions: SRE alone (0.5 mg/ml solution, diluted)
Description: as §1, §2, §3

Rhizoctonia solani = format: cell-based; conditions: SRE alone (0.5 mg/ml solution, diluted)
Description: as §1, §2, §3

Rhizopus stonifer = format: cell-based; conditions: SRE alone (0.5 mg/ml solution, diluted)
Description: as §1, §2, §3

Rhodotorula pilimanae = format: cell-based; conditions: SRE alone (0.5 mg/ml solution, diluted)
Description: as §1, §2, §3

BY4741 = format: cell-based, Saccharomyces cerevisiae
Procedure: (§4) Disk diffusion methods similar to those described by the NCCLS protocols for antifungal testing (Washington, G. L. W. a. J. A. 1995. Antibacterial Susceptibility Tests: Dilution and Disk Diffusion Methods, p. 1327-1341. in P. R. Murray (ed.), Manual of Clinical Microbiology, sixth ed.) were used. FIGS. 2(A) through 2(D) illustrate typically observed result assessments for antimicrobial combinations using the disk diffusion method.
(§5) Tested fungi, utilized in the examples that follow, were grown in RPMI Medium and adjusted to 5×10^4 CFU/ml, and transferred onto solid agar medium of the appropriate growth medium. The cultures were spread over the surface as a thin film. Four millimeter-diameter sterilized paper disks were deposited on the surface and syringomycin E and rhamnolipids were applied on disk 1 and disk 2, respectively (in approximately about 7 to about 10 μl aliquots). The distance between the disks was equal to the sum of radii of zones of inhibition of the drugs applied alone. The plates were incubated at approximately 35° C. for approximately 24-72 h.
(§6) SYRA was obtained by mixing SRE and rhamnolipids at different relative concentrations. SYRA was tested against a variety of yeasts and fungi and the zone of inhibition was measured as described with reference to Examples 2A and 2B.

8A-1B = assay: Disk diffusion, zone of inhibition; format: cell-based, Saccharomyces cerevisiae
Procedure: as §4, §5

W303C = assay: Disk diffusion, zone of inhibition; format: cell-based, Saccharomyces cerevisiae
Procedure: as §4, §5

R.pilimanae = format: cell-based, Rhodotorula pilimanae
Procedure: as §4, §5, §6

[1] = system: Saccharomyces cerevisiae SRE resistant mutant strains Δsmr1,Δsyr2,Δipt1, Δelo2,Δelo3,Δfah1; assay: Replica plate growth inhibition, sphingolipid and sterol biosynthetic mutants; format: cell-based; conditions: parent strains 8A-1B, W303, BY4741
Description: To investigate the mechanism of action of SYRA, Saccharomyces cerevisiae sphingolipid and sterol biosynthetic mutants were used. Saccharomyces cerevisiae parent strains 8A-1B, W303, BY4741 and SRE resistant mutant strains Δsmr1,Δsyr2,Δipt1, Δelo2,Δelo3,Δfah1 were utilized, as described previously (Stock, S. D., H. Hama, J. A. Radding, D. A. Young, and J. Y. Takemoto. 2000. Syringomycin E inhibition of Saccharomyces cerevisiae: requirement for biosynthesis of sphingolipids with very-long-chain fatty acids and mannose- and phosphoinositol-containing head groups. Antimicrob. Agents Chemother. 44:1174-80.). For growth inhibition, a replica plate method was used (Hama, J., D. A. Young, J. A. Radding, D. Ma, J. Tang, S. D. Stock, and J. Y. Takemoto. 2000. Requirement of sphingolipid alpha-hydroxylation for fungicidal action of syringomycin E. FEBS Lett. 478:26-8). Fresh cells were replica plated onto yeast extract-peptone-dextrose (YPD) agar containing different concentrations of SYRA. Growth with and without SYRA addition were compared to determine relative sensitivity.

[2] = system: a variety of yeast and fungi; assay: Antifungal activities against a variety of yeast and fungi (Table 1); format: cell-based; conditions: component alone; Tables 1 and 2
Description: as §1
as §2, with “Then 25 μl of different concentrations of syringomycin are added in a vertical orientation and the rhamnolipids were added in horizontal orientation. The final volume of the well contained 50 μl of the subject composition and 50 μl of the tested culture.” left out, “respectively. […]” for “respectively.”

Compound: C/C=C1\NC(=O)[C@H](Cc2ccccc2)NC(=O)[C@H](CCCNC(=N)N)NC(=O)[C@H](CCN)NC(=O)[C@@H](CCN)NC(=O)[C@@H](CO)NC(=O)[C@@H](NC(=O)C[C@H](O)CCCCCCCCC)COC(=O)[C@H]([C@H](O)CCl)NC(=O)[C@H]([C@H](O)C(=O)O)NC1=O [SRE, Syringomycin E] (X1-S[dS][dDab][Dab]RF[Dhb][Asp(3S-OH)][Thr(4-Cl)]; ester 1-C)
- MIC (Aspergillus flavus): 7.8 µg/mL
- MIC (Botrytis sp): 3.9 µg/mL
- MIC (Candida albicans): 3.9 µg/mL
- MIC (Cladosporium sp): 3.9 µg/mL
- MIC (Fusarium oxysporum): 7.8 µg/mL
- MIC (Penicillium sp1): 7.8 µg/mL
- MIC (Penicillium sp2): 7.8 µg/mL
- MIC (Rhizoctonia solani): 3.9 µg/mL
- MIC (Rhizopus stonifer): 7.8 µg/mL
- MIC (Rhodotorula pilimanae): 3.9 µg/mL
- Zone of Inhibition (BY4741; SRE alone 2.4 mg/ml): 19.0 mm
- Zone of Inhibition (BY4741; SRE alone 5.6 mg/ml): 21.0 mm
- Zone of Inhibition (BY4741; SRE alone 10.3 mg/ml): 23.0 mm
- Zone of Inhibition (8A-1B; SRE alone 2.4 mg/ml): 17.5 mm
- Zone of Inhibition (8A-1B; SRE alone 5.6 mg/ml): 19.0 mm
- Zone of Inhibition (8A-1B; SRE alone 10.3 mg/ml): 20.0 mm
- Zone of Inhibition (W303C; SRE alone 2.4 mg/ml): 26.0 mm
- Zone of Inhibition (W303C; SRE alone 5.6 mg/ml): 28.0 mm
- Zone of Inhibition (W303C; SRE alone 10.3 mg/ml): 29.0 mm
- Zone of Inhibition (R.pilimanae; SRE alone 2.4 mg/ml): 19.0 mm
- Zone of Inhibition (R.pilimanae; SRE alone 5.6 mg/ml): 21.5 mm
- Zone of Inhibition (R.pilimanae; SRE alone 10.3 mg/ml): 23.0 mm
- growth inhibitory activity in mutants compared to wild type [1]: less in the mutants as compared to the wild type
- antifungal activities, alone [2]: strong activity
